Test results published in US20210204549A1, “BACILLUS AMYLOLIQUEFACIENS AND NEONICOTINOIDS MIXTURES AND METHODS OF USE THEREOF” (Valent U.S.A. LLC, priority 2020, published 2021).

Tested on: tomato spotted wilt virus ("TSWV")
Assay: Greenhouse test of in-furrow treatments on peanut plants infected with tomato spotted wilt virus
Type: in vivo
Conditions: peanut plants (Arachis hypogaea), furrow spray; imidacloprid 254.85 g/HA; 63 days after treatment
Procedure: The following greenhouse test was conducted from May 31, 2018 to Oct. 22, 2018 in Tift County, Georgia. Peanut plants (Arachis hypogaea) were used in the test as the crop plant. 6 seeds were planted per foot per row giving 360 seeds per plot. The peanut plants were infected with tomato spotted wilt virus (“TSWV”). Furrows were sprayed with B. amyloliquefaciens strain PTA-4838, imidacloprid, fluopyram and/or Mycorrhizae consortium at the rates disclosed in Table 1 prior to seedling plating. The plants were then infected with TSWV. Number of live plants were counted at 63 days after treatment. Percent TSWV infection was calculated as percent of row feet infected per plot. All data was analyzed using Bartlett's test and with p value of […] for determining significance of the results.

**Q.** `O=[N+]([O-])NC1=NCCN1Cc1ccc(Cl)nc1` [Imidacloprid, imidacloprid] was tested. Which “% Control” value did it give?
**A.** The value was 96.4a %.
